Data from patent US9072293B2, “Cyclopropenes and method for applying cyclopropenes to agricultural products or crops” (Erum Biotechnologies Inc., priority 2010, dated 2015).
“And” between values parts separate entries of the source, which are not always exact repeats. Equal entries are not always repeated.

Key:
[1] = Relative chemical stability of cyclopropenes measured by 1H-NMR; assay type: physicochemical; details: 1H-NMR, CDCl3, stored at −20° C. or room temperature; relative to chain length 1
Description: A variety of analysis methods can be used to analyze the derivatives of Formula 6, since the absorbance of cyclopropenes containing an aryl group can be easily measured in the UV range. It can be confirmed that the chemical stability of the derivatives increases, when the length of chains to link an aryl ring to a cyclopropene ring is 2 or more. […] It is supposed that the stability of cyclopropenes increase due to the fact that π electrons of aryl groups affect π electrons of cyclopropenes.
The following Table 1 summarizes the relative chemical stability of cyclopropenes having a chain length of 2, 3, 4 or 5, based on the chemical stability of cyclopropenes having a chain length of 1. In the case of cyclopropene having a chain length of 1, the structure thereof can be confirmed via ^1H-NMR within one hour following synthesis (degraded to a level of 50% or more within one hour at 30° C.). In the case of cyclopropene having a chain length of zero, synthesis thereof was attempted in accordance with the present invention, but was impossible by a conventional method. Meanwhile, in the case of cyclopropenes having a chain length of 2 or more, the structure thereof can be precisely confirmed by ^1H-NMR as well as ^13C-NMR. The stability of these cyclopropenes was measured by ^1H-NMR while NMR cells (CDCl3) were stored at −20° C. or room temperature. In particular, cyclopropenes having chains of 3 or more were so stable that their half-life reached 5 days or longer at −20° C. or lower. In ^1H-NMR analysis, the stability was evaluated by comparing integral values at 4 to 6.5 ppm (1H) and 0.8 to 0.9 ppm (2H), characteristic peaks of 1-alkylcyclopropenes, using a small amount of 1,1,3,3-tetramethylurea (2.80 ppm) as an internal standard. Furthermore, the stability was also qualitatively evaluated by comparing integral value of the peak newly generated adjacent to the peak of the olefin proton of cyclopropene ring, as a 1-alkylcyclopropene compound is decomposed.

tomato = assay: Experimental Example 3: Efficacy test on tomato for other drugs (emulsion and oil-based formulation); assay type: in vivo; details: individual tomatoes n=4
Procedure: At this time, the tops of tomatoes most early turned red, while the bottoms thereof most lately turned red. For this reason, in order to accurately evaluate the difference in reddening, the coloring evaluated was based on the area of red color, rather than the color of tomatoes. […] Accordingly, the grade level is proportional to the rate at which the tomatoes ripened.
1.0 mM emulsions and oil-based formulations of four agents, i.e., 1-(2-(4-methoxyphenyl)ethyl)cyclopropene, 1-(3-(4-methoxyphenyl)propyl)cyclopropene, 1-(3-phenoxypropyl)cyclopropene and 1-(4-phenoxybutyl)cyclopropene were prepared in accordance with Examples 1 and 2.
The tomatoes were screened in the same manner as in Experimental Example 1 and divided into 9 groups (n=4), i.e., a non-treated group and 4 emulsion-type agent groups and 4 oil-based formulation-type agent groups. Tomatoes were treated with the previously prepared agent using a household sprayer such that the surface thereof was saturated. The tomatoes were stood at room temperature (25-30° C.) for 3 days and a reddening level thereof was evaluated based on grades of 0 to 5.

Structure (SMILES): COc1ccc(CCCC2=CC2)cc1 [(3-(4-Methoxyphenyl)propyl), 1-(3-(4-methoxyphenyl)propyl)cyclopropene]
- Stability (relative chemical stability, based on cyclopropenes having a chain length of 1) [1]: >>10
- reddening level (grade 0 to 5) (tomato; 1.0 mM Emulsion, Day 0, room temperature (25-30° C.)): 0 (an area in which the surface of tomato was colored in pink was 10% or less) (2×) and 1 (an area in which the surface of tomato was completely colored in red was 10 to 40%) and 2 (an area in which the surface of tomato was completely colored in red was 40 to 70%)
- reddening level (grade 0 to 5) (tomato; 1.0 mM Emulsion, Day 1, room temperature (25-30° C.)): 0 (an area in which the surface of tomato was colored in pink was 10% or less) (2×) and 1 (an area in which the surface of tomato was completely colored in red was 10 to 40%) and 2 (an area in which the surface of tomato was completely colored in red was 40 to 70%)
- reddening level (grade 0 to 5) (tomato; 1.0 mM Emulsion, Day 2, room temperature (25-30° C.)): 1 (an area in which the surface of tomato was completely colored in red was 10 to 40%) (2×) and 2 (an area in which the surface of tomato was completely colored in red was 40 to 70%) and 3 (an area in which the surface of tomato was completely colored in red was 70% or more and the bottom area remained green)
- reddening level (grade 0 to 5) (tomato; 1.0 mM Emulsion, Day 3, room temperature (25-30° C.)): 2 (an area in which the surface of tomato was completely colored in red was 40 to 70%) (2×) and 3 (an area in which the surface of tomato was completely colored in red was 70% or more and the bottom area remained green) and 4
- reddening level (grade 0 to 5) (tomato; 1.0 mM Oil-based formulation, Day 0, room temperature (25-30° C.)): 0 (an area in which the surface of tomato was colored in pink was 10% or less) (2×) and 1 (an area in which the surface of tomato was completely colored in red was 10 to 40%) and 2 (an area in which the surface of tomato was completely colored in red was 40 to 70%)
- reddening level (grade 0 to 5) (tomato; 1.0 mM Oil-based formulation, Day 1, room temperature (25-30° C.)): 0 (an area in which the surface of tomato was colored in pink was 10% or less) (2×) and 1 (an area in which the surface of tomato was completely colored in red was 10 to 40%) and 2 (an area in which the surface of tomato was completely colored in red was 40 to 70%)
- reddening level (grade 0 to 5) (tomato; 1.0 mM Oil-based formulation, Day 2, room temperature (25-30° C.)): 1 (an area in which the surface of tomato was completely colored in red was 10 to 40%) (2×) and 2 (an area in which the surface of tomato was completely colored in red was 40 to 70%) and 3 (an area in which the surface of tomato was completely colored in red was 70% or more and the bottom area remained green)
- reddening level (grade 0 to 5) (tomato; 1.0 mM Oil-based formulation, Day 3, room temperature (25-30° C.)): 1 (an area in which the surface of tomato was completely colored in red was 10 to 40%) and 2 (an area in which the surface of tomato was completely colored in red was 40 to 70%) and 3 (an area in which the surface of tomato was completely colored in red was 70% or more and the bottom area remained green) (2×)
